Test results from patent US20050245472A1, “Engineered rnai adenovirus silencing expression (erase) of dna reair proteins” (The Johns Hopkins University, priority 2003, published 2005).

System: DU 145 cells
Experiment: Clonogenic survival after ionizing radiation
Format: cell-based, human
Details: DU 145, 10 μM, one hour before and 24 hours after irradiation, vs DMSO

Compound | DRF, ionizing radiation (DRF at 80% clonogenic cell killing) | DRF, ionizing radiation
O=c1cc(N2CCOCC2)oc2c(-c3ccccc3)cccc12 [LY294002] | 1.1 | 
COC[C@H]1OC(=O)c2coc3c2[C@@]1(C)C1=C(C3=O)[C@@H]2CCC(=O)[C@@]2(C)C[C@H]1OC(C)=O [Wortmannin] |  | 1.4
